Test results from article PMC4501388 (European journal of medicinal chemistry, 2015).
“And” between values parts separate entries of the source, which are not always exact repeats. Equal entries are not always repeated.

Experiments:
TK1 [1] = molecular target: T1, TK1 (Homo sapiens, UniProt P04183); test: Phosphate transfer assay; format: biochemical; conditions: 100 μM nucleoside analogue and 100 μM ATP
T1 sequence (P04183 1-234): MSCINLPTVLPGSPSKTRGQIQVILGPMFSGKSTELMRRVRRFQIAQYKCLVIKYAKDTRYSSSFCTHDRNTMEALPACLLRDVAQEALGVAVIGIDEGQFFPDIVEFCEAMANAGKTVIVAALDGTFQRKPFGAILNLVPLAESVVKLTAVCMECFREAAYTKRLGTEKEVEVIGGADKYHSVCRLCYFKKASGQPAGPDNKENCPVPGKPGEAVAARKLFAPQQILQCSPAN

TK1 [2] = molecular target: T1, TK1; test: Enzyme kinetic studies; format: biochemical; conditions: 1.95–500 μM nucleoside analogue and 100 μM ATP
[3] = Stability during storage in aqueous solutions; format: physicochemical
TK1 [4] = molecular target: T1, TK1; test: Competitive TK1 inhibition studies; conditions: 0.5 μM dThd, 5 mM ATP, 0–250.00 μM nucleoside analogue
[5] = test system: rats bearing intracerebral RG2 gliomas; test: In vivo biodistribution study, boron determination by ICP-OES; design: species or system rat
RG2 glioma cells = test: In vitro metabolomic HRMS study; format: cell-based, rat
[6] = test system: TK1(+)- and TK1(−) L929 cells; conditions: cited from earlier work

3-({4-[4-(closo-1,7-Carboranyl)butyl]amino}butyl)thymidine [Compound 22]
rPR (phosphorylation rate relative to that of dThd) (TK1 [1]): 38% and 38.0 ± 6.5% | Km (TK1 [2]): 39.8 ± 10.4 µM | kcat (TK1 [2]): 5.4 s⁻¹ | rkcat/Km (kcat/Km relative to that of 1) (TK1 [2]): 3.7% | Stability during storage [3]: stable | IC50 (TK1 [4]): > 250 µM

3-({2-[2-(closo-1,7-Carboranyl)ethyl]amino}ethyl)thymidine [Compound 16]
rPR (phosphorylation rate relative to that of dThd) (TK1 [1]): 35.2 ± 5.3%

3-{[3-(closo-1,7-Carboranyl)propyl]amino}thymidine [Compound 9]
rPR (phosphorylation rate relative to that of dThd) (TK1 [1]): ~ 30%

3-({2-[3-(closo-1,7-carboranyl)propyl]amino}-2-oxoethyl)thymidine [Compound 29]
rPR (phosphorylation rate relative to that of dThd) (TK1 [1]): 14.5 ± 4.8%

3-({3-[3-(closo-1,7-Carboranyl)propyl]amino}propyl)thymidine [Compound 19]
rPR (phosphorylation rate relative to that of dThd) (TK1 [1]): 18.8 ± 4.8%

3-({4-[3-(closo-1,7-Carboranyl)propyl]amino}butyl)thymidine [Compound 21]
rPR (phosphorylation rate relative to that of dThd) (TK1 [1]): 45% and 45.2 ± 3.8% | Km (TK1 [2]): 80.1 ± 37.6 µM | kcat (TK1 [2]): 5.9 s⁻¹ | rkcat/Km (kcat/Km relative to that of 1) (TK1 [2]): 2.0% | Stability during storage [3]: stable | IC50 (TK1 [4]): > 250 µM

3-({3-[4-(closo-1,7-Carboranyl)butyl]amino}propyl)thymidine [Compound 20]
rPR (phosphorylation rate relative to that of dThd) (TK1 [1]): 19.5 ± 5.3%

3-({2-[4-(closo-1,7-carboranyl)butyl]amino}-2-oxoethyl)thymidine [Compound 30]
rPR (phosphorylation rate relative to that of dThd) (TK1 [1]): 12.3 ± 8.7%

3-({2-[2-(closo-1,7-Carboranyl)ethyl]amino}-2-oxoethyl)thymidine [Compound 28]
rPR (phosphorylation rate relative to that of dThd) (TK1 [1]): 19.2 ± 4.5%

3-({2-[4-(closo-1,7-Carboranyl)butyl]amino}ethyl)thymidine [Compound 18]
rPR (phosphorylation rate relative to that of dThd) (TK1 [1]): 44.4 ± 8.7%

3-[5-{2-(2,3-dihydroxyprop-1-yl)-o-carboran-1-yl}pentan-1-yl]thymidine [Compound 2]
rPR (phosphorylation rate relative to that of dThd) (TK1 [1]): 40.0% and 40.0 ± 11.2% | Km (TK1 [2]): 24.3 ± 2.1 µM | kcat (TK1 [2]): 5.1 s⁻¹ | rkcat/Km (kcat/Km relative to that of 1) (TK1 [2]): 5.8% | Boron concentration, Tumor ([5]; 100 μg boron i.c. by ALZET pump over 24 h, RG2 glioma, Fischer rats): 8.9 µg/g and 8.8 ± 2.9 µg/g | Ratio T/Bl (tumor/blood ratio) ([5]; tumor to blood boron ratio, i.c. over 24 h): 9.3 | Ratio T/B ([5]; tumor to brain boron ratio, i.c. over 24 h): 4.3 | Di- and triphosphate metabolites (RG2 glioma cells; RG2 cells, HRMS positive and negative ion mode): could not be detected | 5′-Monophosphate metabolite formation (RG2 glioma cells; TK1(+) RG2 cells, 17.5 μM, 2 hours, HRMS): monophosphorylated | Stability during storage [3]: stable | Di- and triphosphorylation ([6]; TK1(+) L929 cells): did not seem to occur | Intracellular monophosphate metabolite formation ([6]; TK1(+) vs TK1(−) L929 cells, tritiated compound): production of tritiated 2-MP in TK1(+) L929 cells but not in their TK1(−) L929 counterparts | IC50 (TK1 [4]): 37.5 ± 6.3 µM

3-({2-[3-(closo-1,7-Carboranyl)propyl]amino}ethyl)thymidine [Compound 17]
rPR (phosphorylation rate relative to that of dThd) (TK1 [1]): 24.5 ± 7.8%
